From patent US20250059165A1, “PIPERIDINYLPYRIDINYLCARBONITRILE DERIVATIVES AS INHIBITORS OF GLUTAMINYL-PEPTIDE CYCLOTRANSFERASE AND GLUTAMINYL-PEPTIDE CYCLOTRANSFERASE LIKE PROTEIN” (Boehringer Ingelheim International GmbH, priority 2023, published 2025)

Columns and labels:
[1] = biological target: T1, QPCTL (Homo sapiens, UniProt Q9NXS2); test: Assay A: biochemical QPCTL activity assay (MALDI-TOF MS, CD47 peptide substrate); settings: 0.5 nM enzyme, 10 μM CD47 peptide substrate; read-out: Inhibition of QPCTL: IC50
T1 construct: made in house
Protocol: (§1) QPCT or QPCTL dependent conversion of N-terminal glutamine to pyroglutamate of CD47 was monitored via MALDI-TOF MS. Test compounds were dissolved in 100% DMSO and serially diluted into clear 1,536-well microtiter plates. […] The plates were incubated for 10 min in a humidified incubator at 24° C. Subsequently, 2.5 μL of CD47 peptide substrate surrogate (^19[…]^33) was added to each well (final concentration: 10 μM for QPCTL/20 μM for QPCT). […] The plates were sealed with an adhesive foil, mixed for 30 s at 1,000 rpm and stored at room temperature until preparation of the MALDI target plates. MALDI target plates were prepared as described previously. […] QPCT or QPCTL activity was monitored by calculating the ratio between product and internal standard signals followed by normalization to high (100% activity) and low (0% activity) controls. Determination of compound potencies was obtained by fitting the dose-response data to a four-parameter logistical equation.

[2] = biological target: T2, QPCT (Homo sapiens, UniProt Q16769); test: Assay A: biochemical QPCT activity assay (MALDI-TOF MS, CD47 peptide substrate); settings: 0.5 nM enzyme, 20 μM CD47 peptide substrate; read-out: Inhibition of QPCT: IC50
T2 construct: purchased Origine (OriGene) TP700028
Protocol: as §1

[3] = system: SIRPα signalling induced by Raji cells; test: Assay B: SIRPα signalling assay using Raji cells; type: cell-based; settings: Homo sapiens, 48 h compound incubation, Jurkat PathHunter SIRPαV1 reporter cells, read-out: Inhibition of SIRPα signalling induced by Raji cells: IC50
Protocol: (§2) Two cell types are independently used: the Raji cell line (lymphoblast-like human cell line derived from B lymphocytes from a Burkitt's lymphoma patient in 1963) and A549 cells (adenocarcinomic human alveolar basal epithelial cells).
(§3) Test compounds were dissolved in 100% DMSO and serially diluted into a white 384-well microtiter cell culture plate (PerkinElmer #60076780 in case of Raji assay; PDL-coated plates Greiner #781945 in case of A549 assay). 5000 Raji cells (ATCC #CC86) or 5000 A549 cells (ATCC #CCL-185) in Assay Complete Cell Plating reagent 30 (DiscoverX 93-0563R30B) were added per well. The assay plate was incubated for 48 h at 37° C., 95% humidity and 5% CO2. 15000 reporter cells (Jurkat PathHunter SIRPαV1, DiscoverX #93-1135C19) were added to each well, and the plate was incubated for 5 h at 37° C., 95% humidity and 5% CO2. Bioassay reagent 1 of the PathHunter Bioassay detection kit (DiscoverX 93-0001) was added to each well of the plate using a multichannel pipette followed by a 15 min incubation at room temperature. Afterwards bioassay reagent 2 was added followed by […] incubation at room temperature (incubation in the dark). The analysis of the data was performed using the luminescence signal generated by beta-galactosidase in the PathHunter reporter cell line. The luminescence measurement was done using a Pherastar Multi-Mode Reader. Dose-response curves & IC50 data were calculated with 4-parameter sigmoidal dose response formula.

[4] = system: SIRPα signalling induced by A549 cells; test: Assay B: SIRPα signalling assay using A549 cells; type: cell-based; settings: Homo sapiens, 48 h compound incubation, Jurkat PathHunter SIRPαV1 reporter cells, read-out: Inhibition of SIRPα signalling induced by A549 cells: IC50
Protocol: as §2, §3

[5] = Assay C: permeability in CACO-2 cells; type: in vitro ADME; settings: human, pH 7.2; for efflux ratio: Caco-2, Permeability B-A/Permeability A-B; for Papp A→B: Caco-2, apical to basolateral
Protocol: Caco-2 cells (1−2×10^5 cells/1 cm^2 area) are seeded on filter inserts (Costar transwell polycarbonate or PET filters, 0.4 µm pore size) and cultured (DMEM) for 10 to 25 days. Compounds are dissolved in appropriate solvent (like DMSO, 1-20 mM stock solutions). […] The transport solution (TL) is applied to the apical or basolateral donor side for measuring A-B or B-A permeability (3 filter replicates), respectively. Samples are collected at the start and end of experiment from the donor and at various time intervals for up to 2 hours also from the receiver side for concentration measurement by HPLC-MS/MS or scintillation counting. Sampled receiver volumes are replaced with fresh receiver solution. Efflux Ratio (ER)=Permeability B-A/Permeability A-B

T1 sequence (Q9NXS2 whole entry): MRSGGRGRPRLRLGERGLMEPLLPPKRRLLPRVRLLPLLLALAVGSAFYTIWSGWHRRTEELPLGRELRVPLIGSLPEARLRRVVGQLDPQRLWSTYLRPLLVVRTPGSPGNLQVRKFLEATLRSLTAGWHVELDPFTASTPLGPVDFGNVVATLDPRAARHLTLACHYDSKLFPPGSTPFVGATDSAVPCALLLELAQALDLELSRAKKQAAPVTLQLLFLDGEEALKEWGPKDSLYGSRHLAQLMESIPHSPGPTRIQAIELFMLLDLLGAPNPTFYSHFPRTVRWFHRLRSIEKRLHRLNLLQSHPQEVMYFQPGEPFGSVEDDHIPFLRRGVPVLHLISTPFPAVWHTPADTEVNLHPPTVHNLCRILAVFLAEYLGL
T2 sequence (Q16769 29-361): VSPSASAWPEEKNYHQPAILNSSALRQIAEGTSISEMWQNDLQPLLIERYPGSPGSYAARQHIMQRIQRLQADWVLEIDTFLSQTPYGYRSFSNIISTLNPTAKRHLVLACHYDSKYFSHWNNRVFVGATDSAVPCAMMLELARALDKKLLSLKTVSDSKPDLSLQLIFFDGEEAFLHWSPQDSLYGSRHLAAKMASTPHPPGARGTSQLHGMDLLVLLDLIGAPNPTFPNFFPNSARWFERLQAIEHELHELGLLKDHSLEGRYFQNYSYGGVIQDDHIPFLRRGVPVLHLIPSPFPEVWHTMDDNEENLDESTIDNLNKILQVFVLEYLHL

Row | IC50 [1] [nM] | IC50 [2] [nM] | IC50 [3] [nM] | IC50 [4] [nM] | efflux ratio [5] | Papp A→B [5] [×10⁻⁶ cm/s] | SMILES
1 | 4 | 3 | 106 | 52 | 2.2 | 16 | Cn1cnnc1C1(F)CCN(c2c(C#N)ccnc2-c2cnn3nc(-c4ccc(Cl)cc4)ccc23)CC1 [Example 27]
2 | 3 | 11 | 673 | 202 | 32.8 | 0.7 | Cn1cnnc1C1(F)CCN(c2c(C#N)ccnc2-c2cnc3nnn(Cc4ccc(C(F)(F)F)nc4)c3c2)CC1 [Example 14]
